Assay results: article PMC2874393, “Comparison of zwitterionic N-alkylaminomethanesulfonic acids to related compounds in the Good buffer series” (Beilstein Journal of Organic Chemistry, 2010)
Like-named read-outs stand apart in the source and are kept apart here. Marks after values point to notes of the source that are not given here. Values belong to the compound of their own block, whether it stands above or below them.

Assays:
[1] = pKa of ammonium ion proton dissociation by aqueous solution titrimetry; format: physicochemical
Method: We then performed titrations to determine the pKa values of proton dissociation from the ammonium ion (1a and equivalent). The pKa values determined for these compounds, along with those of the analogous aminoethanesulfonate and aminopropanesulfonate buffer pKa values for comparison is presented in Table 1.
Acid dissociation constants for the ammonium ions were determined by aqueous solution titrimetry (min. 5 repetitions from low to high, then high to low pH) using standardized NaOH and HCl solutions.

E. coli strain HB101 = test: culture growth with buffer compounds, optical density at 600 nm; format: cell-based; details: for Final OD600: E. coli HB101, pH 7.2, 37 °C, 18 h, 3 trials; for culture growth support: all concentrations tested (10, 20, 50 mM); for toxicity or culture growth inhibition: higher concentrations of buffer
Method: In order to assess the potential utility of these compounds as biological buffers, we conducted an initial experiment with different concentrations of the new compounds with E. coli strain HB101 at pH 7.2 and 37 °C for 18 h. Culture growth was estimated by optical density measurement at 600 nm, and the results are summarized in Table 2 (in which each value is the result of 3 separate trials, with an overall standard error for all final measurements of 0.025).

[2] = cited from earlier work; for pKa (propyl analog) / pKa (ethyl analog): ref [1],[5],[7]; for pKa: in water, ref [4]
[3] = aqueous solubility (observation); format: physicochemical; details: at low pH / pH ≤ pKa
Text: All of the compounds except 2 show evidence of a systematic decrease in pKa as the number of carbons between the amine and sulfonic acid functional groups decreases.

[4] = ammonium ion, aqueous titration
[5] = 2nd (ammonium) dissociation constant value

SMILES: O=S(=O)(O)CN1CCOCC1 [compound 1, N-Morpholinomethanesulfonic acid]
pKa ([1]; 0.3 M solution at 20 °C): 3.8
pKa [1, 4]: 3.9
Final OD600 (E. coli strain HB101; 10 mM buffer): 1.16
Final OD600 (E. coli strain HB101; 20 mM buffer): 1.22
Final OD600 (E. coli strain HB101; 50 mM buffer): 1.18
culture growth support (E. coli strain HB101): supported culture growth at all concentrations tested

SMILES: O=S(=O)(O)CCCN1CCN(CCO)CC1 [EPPS, 4-(2-hydroxyethyl)-1-piperazinepropanesulfonic acid]
pKa (propyl analog) [2]: 8.0

SMILES: O=S(=O)(O)CN1CCN(CS(=O)(=O)O)CC1 [compound 3, Piperazine-N,N′-bis(methanesulfonic acid)]
pKa ([1]; 0.3 M solution at 20 °C): 4.8
pKa ([1]; 2nd (ammonium) dissociation constant value, aqueous titration): 4.9
Final OD600 (E. coli strain HB101; 10 mM buffer): 1.23
Final OD600 (E. coli strain HB101; 20 mM buffer): 1.21
Final OD600 (E. coli strain HB101; 50 mM buffer): 1.08
culture growth support (E. coli strain HB101): supported culture growth at all concentrations tested
toxicity or culture growth inhibition (E. coli strain HB101): possible toxicity or other culture growth inhibition
aqueous solubility [3]: does not demonstrate the limited aqueous solubility

aqueous solubility [3]: limited aqueous solubility
SMILES: O=S(=O)(O)CCN1CCN(CCS(=O)(=O)O)CC1 [PIPES, reference compound]
pKa (ethyl analog) [2, 5]: 6.8^b

SMILES: O=S(=O)(O)CCNC1CCCCC1 [CHES, 2-(cyclohexylamino)ethanesulfonic acid]
pKa (ethyl analog) [2]: 9.3

SMILES: O=S(=O)(O)CN1CCN(CCO)CC1 [compound 2, N-(2-hydroxyethyl)piperazine-N′-methanesulfonic acid]
pKa ([1]; 0.25M solution at 20 °C): 7.4
pKa [1, 4]: 7.9
Final OD600 (E. coli strain HB101; 10 mM buffer): 1.16
Final OD600 (E. coli strain HB101; 20 mM buffer): 1.08
Final OD600 (E. coli strain HB101; 50 mM buffer): 0.66
culture growth support (E. coli strain HB101): supported culture growth at all concentrations tested
toxicity or culture growth inhibition (E. coli strain HB101): possible toxicity or other culture growth inhibition

SMILES: O=S(=O)(O)CCCN1CCN(CCCS(=O)(=O)O)CC1 [PIPPS, piperazine-N,N′-bis(3-propanesulfonic acid]
pKa (propyl analog) [2, 5]: 8.0^b

SMILES: NS(=O)(=O)O [sulfamic acid]
pKa [2]: 1.01

SMILES: O=S(=O)(O)CCN1CCN(CCO)CC1 [HEPES]
pKa (ethyl analog) [2]: 7.5

SMILES: NCS(=O)(=O)O [aminomethanesulfonic acid]
pKa [2]: 5.75

pKa ([1]; 0.3 M solution at 20 °C): 7.8
pKa [1, 4]: ~7
aqueous solubility [3]: limited solubility in aqueous solution
SMILES: O=S(=O)(O)CNC1CCCCC1 [compound 4, Cyclohexylaminomethanesulfonic acid]
